Type in all cases: in vivo
One series has as its system Spodoptera eridania. Kind of series: Action on Southern Armyworm (Spodoptera eridania), 2nd Instar Larvae. The following applies: 300 ppm; 2nd instar larvae; 4 days after treatment. The method in brief:
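Compounds in 50% acetone/water with 0.01% nonionic surfactant sprayed electrostatically onto Lima bean plants at 1st true leaf stage. After drying, 10–11 2nd-instar larvae bagged with each pot, kept about 25 °C, 20–40% RH. Mortality and reduced feeding scored at 4 days vs untreated plants.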

The next series has as its system Aedes aegypti. Kind of series: whole plant or invertebrate. The following applies: 800 ppm; larvae; 2 days. The method in brief:
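Freshly hatched larvae (5-15 per well) were held in tap water, and compounds formulated in 25% DMSO/water were sprayed onto diet at several concentrations in duplicate. Larval mortality was scored visually after 2 days at 28±1 °C, 80±5% RH.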

The next series concerns Plutella xylostella. The experiment in a line: Action on Diamond Back Moth (Plutella xylostella), microtiter plates, insect diet, eggs. The following applies: 800 ppm; egg and larval mortality; 5 days. As for the experimental part:
Example B8: Action on Diamond Back Moth (Plutella xylostella)
For evaluating control of diamond back moth (Plutella xylostella) the test unit consisted of 96-well-microtiter plates containing an insect diet and 15-25 P. xylostella eggs. The compounds or mixtures were formulated using a solution containing 75% water and 25% DMSO. Different concentrations of formulated compounds or mixtures were sprayed onto the insect diet at 5 μl, using a custom-built micro atomizer, at two replications. For experimental mixtures in these tests identical volumes of both mixing partners at the desired concentrations respectively, were mixed together. After application, microtiter plates were incubated at 28±1 °C, 80±5% RH for 5 days. Egg and larval mortality was then visually assessed.

Another series relates to Heliothis virescens. The experiment in a line: Action on Tobacco Budworm (Heliothis virescens). The following applies: 800 ppm; egg and larval mortality; 5 days. The method in brief:
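Compounds in 25% DMSO/75% water were sprayed at several concentrations onto insect diet in microtiter wells holding 15-25 eggs, two replications. After 5 days at about 28±1 °C and 80±5% RH, egg and larval mortality was scored visually.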

For a further series, the system named is Anthonomus grandis. Kind of series: Action on Boll Weevil (Anthonomus grandis). To be noted: 800 ppm; egg and larval mortality; 5 days. Summed up:
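Compounds in 75:25 water:DMSO sprayed at several concentrations onto insect diet in microtiter wells holding 5-10 eggs, two replicates. Plates kept 5 days at about 25±1 °C and 75±5% RH; egg and larval mortality scored visually.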

With `Cc1ccc(C(C)C)c(N2C(=O)CSC2=NC(=O)Nc2ccc(-n3cc(NC(=O)c4ccc([N+](=O)[O-])cc4)c(C)n3)cc2)c1` [Example C-54], the “mortality in comparison with untreated controls” value (“mortality in comparison” for short) is listed as “at least 75%” with Spodoptera eridania; “at least 50%” with Aedes aegypti; “at least 75%” in the series with Plutella xylostella; “at least 75%” with Heliothis virescens; “at least 75%” in the series on Anthonomus grandis.
With `Cc1ccc(C(C)C)c(N2C(=O)CS/C2=N\C(=O)Nc2cc(Cl)c(-n3nc(C)c(NC(=O)c4ccc(OC(F)(F)F)cc4)c3C)cc2C)c1` [Example C-98], the “mortality in comparison” value in the series on Spodoptera eridania is “at least 75%”; in the series on Aedes aegypti it was “at least 50%”; in the series with Plutella xylostella, “at least 75%”; with Heliothis virescens it was “at least 75%”; with Anthonomus grandis it was “at least 75%”.
On to `Cc1ccc(C(C)C)c(N2C(=O)CS/C2=N\C(=O)Nc2cc(C)c(-n3nc(C)c(NC(=O)c4ccc(OC(F)(F)F)cc4)c3C)cc2Cl)c1` [Example C-99], for which the “mortality in comparison” value in the series with Spodoptera eridania is reported as “at least 75%”; in the series on Aedes aegypti it was “at least 50%”; in the series on Plutella xylostella it was “at least 75%”; with Heliothis virescens it was “at least 75%”; in the series on Anthonomus grandis, “at least 75%”.
In the case of `Cc1ccc(C(C)C)c(N2C(=O)CS/C2=N\C(=O)Nc2ccc(-n3nc(C)c(NC(=O)c4ccc(OC(F)(F)F)cc4)c3NCC3OCCO3)cc2)c1` [Example C-100], the “mortality in comparison” value is reported as “at least 75%” in the series on Spodoptera eridania; “at least 50%” with Aedes aegypti; “at least 75%” in the series on Plutella xylostella; “at least 75%” in the series with Heliothis virescens; “at least 75%” in the series on Anthonomus grandis.
As to `Cc1ccc(C(C)C)c(N2C(=O)CS/C2=N\C(=O)Nc2ccc(-n3nc(C)c(NC(=O)c4ccc(OC(F)(F)F)cc4)c3N)cc2)c1` [Example C-101], the “mortality in comparison” value is listed as “at least 75%” with Spodoptera eridania; “at least 50%” with Aedes aegypti; “at least 75%” with Plutella xylostella; “at least 75%” in the series on Heliothis virescens; “at least 75%” with Anthonomus grandis.
Consider `Cc1ccc(C(C)C)c(N2C(=O)CS/C2=N\C(=O)Nc2ccc(-n3nc(C)c(NC(=O)c4ccc(Cl)c(Cl)c4)c3C)cc2Cl)c1` [Example C-102], for which the “mortality in comparison” value with Spodoptera eridania is listed as “at least 75%”; with Aedes aegypti, “at least 50%”; in the series with Plutella xylostella, “at least 75%”; in the series on Heliothis virescens it was “at least 75%”; with Anthonomus grandis, “at least 75%”.
For the compound `CCN(C(=O)c1ccc(Cl)c(Cl)c1)c1c(C)nn(-c2ccc(NC(=O)/N=C3\SCC(=O)N3c3cc(C)ccc3C(C)C)c(Cl)c2)c1C` [Example C-103], the “mortality in comparison” value is recorded as “at least 75%” in the series with Spodoptera eridania; “at least 50%” in the series with Aedes aegypti; “at least 75%” in the series with Plutella xylostella; “at least 75%” in the series on Heliothis virescens; “at least 75%” in the series on Anthonomus grandis.
`Cc1ccc(C(C)C)c(N2C(=O)CS/C2=N\C(=O)Nc2c(C)cc(-n3nc(C)c(NC(=O)c4ccc(OC(F)(F)F)cc4)c3C)cc2Cl)c1` [Example C-105]: the “mortality in comparison” value in the series with Spodoptera eridania is “at least 75%”; in the series on Aedes aegypti it was “at least 50%”; with Plutella xylostella it was “at least 75%”; with Heliothis virescens, “at least 75%”; in the series on Anthonomus grandis, “at least 75%”.
Take `Cc1ccc(C(C)C)c(N2C(=O)CS/C2=N\C(=O)Nc2ccc(-n3nc(C)c(NC(=O)c4ccc(Cl)cc4F)c3C)cc2Cl)c1` [Example C-106]: the “mortality in comparison” value was “at least 75%” with Spodoptera eridania; “at least 50%” in the series on Aedes aegypti; “at least 75%” in the series with Plutella xylostella; “at least 75%” in the series on Heliothis virescens; “at least 75%” with Anthonomus grandis.
On to `Cc1ccc(C(C)C)c(N2C(=O)CSC2=NC(=O)Nc2ccc(-n3nc(C)c(NC(=O)c4ccc(C#N)cc4F)c3C)cc2)c1` [Example C-107], for which the “mortality in comparison” value with Spodoptera eridania was “at least 75%”; in the series with Aedes aegypti, “at least 50%”; in the series with Plutella xylostella, “at least 75%”; in the series with Heliothis virescens, “at least 75%”; in the series with Anthonomus grandis, “at least 75%”.
With `Cc1ccc(C(C)C)c(N2C(=O)CSC2=NC(=O)Nc2ccc(-n3nc(C)c(NC(=O)c4ccc(C#N)c(F)c4)c3C)cc2)c1` [Example C-108], the “mortality in comparison” value with Spodoptera eridania is “at least 75%”; in the series on Aedes aegypti, “at least 50%”; with Plutella xylostella, “at least 75%”; with Heliothis virescens, “at least 75%”; in the series with Anthonomus grandis it was “at least 75%”.
As to `Cc1ccc(C(C)C)c(N2C(=O)CSC2=NC(=O)Nc2ccc(-n3nc(C)c(NC(=O)c4ccc(Cl)c(F)c4)c3C)cc2)c1` [Example C-109], the “mortality in comparison” value was “at least 75%” with Spodoptera eridania; “at least 50%” with Aedes aegypti; “at least 75%” in the series with Plutella xylostella; “at least 75%” in the series on Heliothis virescens; “at least 75%” in the series on Anthonomus grandis.
Consider `Cc1ccc(C(C)C)c(N2C(=O)CSC2=NC(=O)Nc2ccc(-n3nc(C)c(NC(=O)c4ccc(Cl)cc4F)c3C)cc2)c1` [Example C-110], for which the “mortality in comparison” value in the series with Spodoptera eridania is reported as “at least 75%”; with Aedes aegypti it was “at least 50%”; in the series with Plutella xylostella it was “at least 75%”; with Heliothis virescens, “at least 75%”; in the series on Anthonomus grandis, “at least 75%”.
Turning to `Cc1ccc(C(C)C)c(N2C(=O)CSC2=NC(=O)Nc2ccc(-n3nc(C)c(NC(=O)c4ccc(Cl)cc4)c3C)cc2)c1` [Example C-111], the “mortality in comparison” value is on record as “at least 75%” with Spodoptera eridania; “at least 50%” with Aedes aegypti; “at least 75%” in the series with Plutella xylostella; “at least 75%” in the series with Heliothis virescens; “at least 75%” in the series on Anthonomus grandis.
For `Cc1ccc(C(C)C)c(N2C(=O)CSC2=NC(=O)Nc2ccc(-n3nc(C)c(NC(=O)c4ccc(F)cc4)c3C)cc2)c1` [Example C-112], the “mortality in comparison” value in the series on Spodoptera eridania is reported as “at least 75%”; in the series with Aedes aegypti, “at least 50%”; in the series with Plutella xylostella, “at least 75%”; in the series with Heliothis virescens, “at least 75%”; in the series on Anthonomus grandis, “at least 75%”.
Take `Cc1ccc(C(C)C)c(N2C(=O)CSC2=NC(=O)Nc2ccc(-n3nc(C)c(NC(=O)c4ccc(F)c(F)c4)c3C)cc2)c1` [Example C-114]: the “mortality in comparison” value in the series on Spodoptera eridania is recorded as “at least 75%”; in the series on Aedes aegypti, “at least 50%”; in the series with Plutella xylostella, “at least 75%”; with Heliothis virescens it was “at least 75%”; with Anthonomus grandis it was “at least 75%”.
As for `Cc1ccc(C(C)C)c(N2C(=O)CSC2=NC(=O)Nc2ccc(-n3nc(C)c(NC(=O)c4ccc(Cl)c(Cl)c4)c3C)cc2)c1` [Example C-115], the “mortality in comparison” value with Spodoptera eridania is “at least 75%”; in the series on Aedes aegypti, “at least 50%”; in the series with Plutella xylostella, “at least 75%”; in the series on Heliothis virescens, “at least 75%”; with Anthonomus grandis, “at least 75%”.
As for `Cc1ccc(C(C)C)c(N2C(=O)CSC2=NC(=O)Nc2ccc(-n3nc(C)c(NC(=O)c4ccc(Br)cc4)c3C)cc2)c1` [Example C-116], the “mortality in comparison” value in the series on Spodoptera eridania was “at least 75%”; in the series with Aedes aegypti it was “at least 50%”; with Plutella xylostella, “at least 75%”; with Heliothis virescens, “at least 75%”; in the series with Anthonomus grandis it was “at least 75%”.

These data come from US20260354380A1, “PYRAZOLO PESTICIDAL COMPOUNDS” (BASF SE, priority 2022, published 2026).
